Format in all cases: biochemical
Experiment [1] concerns the target T1, Human DAO (Homo sapiens, UniProt P19801).
T1 sequence (P19801 20-751): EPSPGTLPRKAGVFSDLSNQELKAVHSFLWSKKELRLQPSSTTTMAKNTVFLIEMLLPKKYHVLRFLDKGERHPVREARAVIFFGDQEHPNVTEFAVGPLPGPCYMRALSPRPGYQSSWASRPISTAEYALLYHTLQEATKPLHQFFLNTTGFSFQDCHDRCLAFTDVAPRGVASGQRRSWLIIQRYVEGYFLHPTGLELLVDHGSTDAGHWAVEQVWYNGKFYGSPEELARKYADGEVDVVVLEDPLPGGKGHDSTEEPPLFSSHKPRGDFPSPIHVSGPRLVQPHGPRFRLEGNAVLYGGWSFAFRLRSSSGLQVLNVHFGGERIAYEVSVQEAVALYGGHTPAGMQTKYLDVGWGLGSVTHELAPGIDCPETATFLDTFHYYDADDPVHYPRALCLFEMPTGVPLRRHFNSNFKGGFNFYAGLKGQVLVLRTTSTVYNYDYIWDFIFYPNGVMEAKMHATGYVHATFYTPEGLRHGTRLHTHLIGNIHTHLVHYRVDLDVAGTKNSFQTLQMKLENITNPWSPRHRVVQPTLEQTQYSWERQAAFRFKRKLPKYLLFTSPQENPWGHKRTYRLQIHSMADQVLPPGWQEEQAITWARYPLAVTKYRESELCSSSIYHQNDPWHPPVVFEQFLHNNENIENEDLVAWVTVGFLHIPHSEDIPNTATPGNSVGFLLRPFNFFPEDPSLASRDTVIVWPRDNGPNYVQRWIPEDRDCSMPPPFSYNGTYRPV
Kind of experiment: DAO inhibition (Amplex Red continuous fluorescence assay). The conditions noted are these: 30 min pre-incubation at room temp; substrate histamine; read-out: Human DAO IC50. The method, then: (§1) VAP-1, DAO, MAO-A, MAO-B, and HRP activity and inhibition thereof was assessed by means of a continuous fluorescence assay. The Amplex Red Hydrogen Peroxide/Peroxidase Assay (ThermoFisher) was optimized for detecting amine oxidase (AO) activity. In an enzyme-coupled reaction, the H2O2 generated by AO reacts 1:1 with Amplex Red reagent to produce fluorescent product resorufin.
(§2) Assays were typically setup in black 384-well plates using automated liquid handling as follows. VAP-1/MAO assay buffer contains […] sodium phosphate, pH 7.4; DAO assay buffer contains 50 mM HEPES, pH 7.5; HRP assay buffer contains 100 mM CHES, 1 mM MgCl2, 50 mM NaCl, 0.05% BSA, pH 9.0. Inhibitors were serially diluted in DMSO and used to setup 2× mixtures with AO in the aforementioned buffer. After 30 min pre-incubation at 37° C. (VAP-1, HRP) or room temp (DAO, MAO), the reaction was initiated by adding a 2× mix of Amplex Red, HRP (coupling enzyme), and substrate (benzylamine, histamine, tyramine, benzylamine, H2O2, for VAP-1, DAO, MAO-A, MAO-B, and HR, respectively) in the same buffer. Reaction progress curve data were typically collected for 5 min using excitation/emission wavelengths of 510 nm/565 nm on FLIPR-Tetra plate readers (Molecular Devices Inc). Reaction rates were calculated from progress curve slopes typically over 60-150 sec. Dose response curves (rate vs. log inhibitor concentration) were typically fit to a 4-parameter logistic function to extract IC50 values.

The target of experiment [2] is T2, Human MAO-B (Homo sapiens, UniProt P27338).
T2 sequence (P27338 1-520): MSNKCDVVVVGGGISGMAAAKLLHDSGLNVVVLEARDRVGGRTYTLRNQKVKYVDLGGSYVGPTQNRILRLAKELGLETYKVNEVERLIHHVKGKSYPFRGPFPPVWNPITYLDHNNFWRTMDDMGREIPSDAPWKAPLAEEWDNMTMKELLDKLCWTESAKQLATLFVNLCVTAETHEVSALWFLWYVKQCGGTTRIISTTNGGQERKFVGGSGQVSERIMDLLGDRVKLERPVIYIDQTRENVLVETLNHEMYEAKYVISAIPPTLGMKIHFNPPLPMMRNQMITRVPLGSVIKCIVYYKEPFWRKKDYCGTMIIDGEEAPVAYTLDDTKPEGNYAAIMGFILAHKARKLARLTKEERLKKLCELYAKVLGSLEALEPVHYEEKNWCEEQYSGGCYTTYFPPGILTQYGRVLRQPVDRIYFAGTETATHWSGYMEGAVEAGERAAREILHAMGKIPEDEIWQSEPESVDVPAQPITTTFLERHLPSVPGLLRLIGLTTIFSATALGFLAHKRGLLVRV
Kind of experiment: MAO-B inhibition (Amplex Red continuous fluorescence assay). Particulars: 30 min pre-incubation at room temp; substrate benzylamine; read-out: Human MAO-B IC50. As to the method:
as §1, §2

For experiment [3], the target named is T3, Human MAO-A (Homo sapiens, UniProt P21397).
T3 sequence (P21397 1-527): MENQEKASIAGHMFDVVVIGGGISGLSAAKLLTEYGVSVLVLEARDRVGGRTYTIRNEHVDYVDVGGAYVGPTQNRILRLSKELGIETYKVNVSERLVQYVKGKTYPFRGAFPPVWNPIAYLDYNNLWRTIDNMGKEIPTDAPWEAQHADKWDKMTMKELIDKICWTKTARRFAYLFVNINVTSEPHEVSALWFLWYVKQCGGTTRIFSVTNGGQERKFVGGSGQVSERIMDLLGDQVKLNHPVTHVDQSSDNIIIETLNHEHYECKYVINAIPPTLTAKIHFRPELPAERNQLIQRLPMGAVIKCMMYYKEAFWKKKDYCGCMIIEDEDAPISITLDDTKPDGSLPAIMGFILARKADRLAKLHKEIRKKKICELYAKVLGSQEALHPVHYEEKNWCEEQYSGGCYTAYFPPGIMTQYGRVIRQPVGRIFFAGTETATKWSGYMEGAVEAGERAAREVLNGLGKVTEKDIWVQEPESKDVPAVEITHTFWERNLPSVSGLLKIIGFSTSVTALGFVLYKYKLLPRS
Kind of experiment: MAO-A inhibition (Amplex Red continuous fluorescence assay). Particulars: 30 min pre-incubation at room temp; substrate tyramine; read-out: Human MAO-A IC50. As to the method: as §1, §2

In experiment [4] the target is T4, Human VAP-1 (Homo sapiens, UniProt Q16853).
T4 sequence (Q16853 1-763): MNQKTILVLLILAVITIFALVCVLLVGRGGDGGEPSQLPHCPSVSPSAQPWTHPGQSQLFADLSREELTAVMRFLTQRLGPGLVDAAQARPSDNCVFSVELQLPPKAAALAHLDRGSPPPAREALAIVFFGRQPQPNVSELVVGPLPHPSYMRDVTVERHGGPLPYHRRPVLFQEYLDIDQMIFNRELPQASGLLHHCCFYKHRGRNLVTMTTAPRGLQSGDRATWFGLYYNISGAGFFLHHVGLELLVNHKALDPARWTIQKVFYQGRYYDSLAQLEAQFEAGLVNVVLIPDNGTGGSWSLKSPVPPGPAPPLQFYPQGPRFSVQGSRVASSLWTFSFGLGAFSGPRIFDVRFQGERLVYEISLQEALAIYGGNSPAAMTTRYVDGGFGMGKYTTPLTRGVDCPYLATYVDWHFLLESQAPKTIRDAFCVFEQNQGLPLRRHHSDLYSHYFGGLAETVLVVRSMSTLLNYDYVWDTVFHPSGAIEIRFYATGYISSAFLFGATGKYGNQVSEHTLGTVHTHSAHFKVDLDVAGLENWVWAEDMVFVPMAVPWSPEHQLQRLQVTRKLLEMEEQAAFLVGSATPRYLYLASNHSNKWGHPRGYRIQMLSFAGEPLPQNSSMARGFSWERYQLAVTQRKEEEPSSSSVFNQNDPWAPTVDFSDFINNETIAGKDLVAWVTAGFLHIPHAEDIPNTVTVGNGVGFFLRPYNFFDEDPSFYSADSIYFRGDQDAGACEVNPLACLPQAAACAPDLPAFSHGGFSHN
Nature of the experiment: VAP-1 inhibition assay (Amplex Red continuous fluorescence assay). Particulars: 30 min pre-incubation at 37° C.; substrate benzylamine; read-out: Human VAP-1 IC50. The method, then: as §1, §2

Counter-ions that a name gives are not always drawn. A value given as a limit tells only on which side of the number the result lay.

As to `NC/C(=C\F)COc1ccc(-c2ccccc2)cc1` [Compound 33, (E)-2-(([1,1′-biphenyl]-4-yloxy)methyl)-3-fluoroprop-2-en-1-amine hydrochloride], the IC50 in experiment [1] is more than 10 µM; in experiment [2], less than 3 µM; in experiment [3], less than 3 µM; in experiment [4] it was less than 3 µM.

For `NC/C(=C\F)CN1CCc2ccccc21` [Compound 62, (E)-3-fluoro-2-(indolin-1-ylmethyl)prop-2-en-1-amine hydrochloride], the IC50 in experiment [1] is less than 3 µM; in experiment [2], more than 10 µM; in experiment [3], more than 10 µM; in experiment [4] it was less than 3 µM.

As for `CC(C)(C)NC(=O)c1ccc(NC/C(=C\F)CN)cc1` [Compound 46, (Z)-4-((2-(aminomethyl)-3-fluoroalkyl)amino)-N-(tert-butyl)benzamide hydrochloride], the IC50 was 3 to 10 µM in experiment [1], less than 3 µM in experiment [2], more than 10 µM in experiment [3] and less than 3 µM in experiment [4].

Turning to `NC/C(=C\F)COc1ccc(-c2nc3ccccc3[nH]2)cc1` [Compound 10, (E)-2-((4-(1H-benzo[d]imidazol-2-yl)phenoxy)methyl)-3-fluoroprop-2-en-1-amine hydrochloride], the IC50 is less than 3 µM in experiment [1], less than 3 µM in experiment [2], more than 10 µM in experiment [3] and less than 3 µM in experiment [4].

As to `NC/C(=C\F)COc1ccc(-c2nccs2)cc1` [Compound 19, (E)-3-fluoro-2-((4-(thiazol-2-yl)phenoxy)methyl)prop-2-en-1-amine hydrochloride], the IC50 is less than 3 µM in experiment [1], less than 3 µM in experiment [2], 3 to 10 µM in experiment [3] and less than 3 µM in experiment [4].

`CCNC(=O)Nc1ccc(OC/C(=C/F)CN)cc1` [Compound 7, (E)-1-(4-((2-(aminomethyl)-3-fluoroalkyl)oxy)phenyl)-3-ethylurea hydrochloride]: the half-inhibitory concentration (IC50) was 3 to 10 µM in experiment [1], less than 3 µM in experiment [2], 3 to 10 µM in experiment [3] and less than 3 µM in experiment [4].

In the case of `NC/C(=C/F)COc1ccc(-c2ncon2)cc1` [Compound 44, (Z)-2-((4-(1,2,4-OXADIAZOL-3-YL)PHENOXY)METHYL)-3-FLUOROPROP-2-EN-1-AMINE HYDROCHLORIDE], the IC50 in experiment [1], in experiment [2], in experiment [3] and in experiment [4] was less than 3 µM each time.

Take `NC/C(=C\F)COc1ccc(-c2nnn[nH]2)cc1` [Compound 51, (E)-2-((4-(1H-tetrazol-5-yl)phenoxy)methyl)-3-fluoroprop-2-en-1-amine hydrochloride]: the IC50 in experiment [1] is 3 to 10 µM; in experiment [2], more than 10 µM; in experiment [3] it was more than 10 µM; in experiment [4], less than 3 µM.

Turning to `NC/C(=C\F)Cn1ccc2ccccc21` [Compound 15, (E)-2-((1H-indol-1-yl)methyl)-3-fluoroprop-2-en-1-amine hydrochloride], the concentration for half-maximal inhibition (IC50) in experiment [1] was more than 10 µM; in experiment [2], less than 3 µM; in experiment [3] it was less than 3 µM; in experiment [4], less than 3 µM.

Consider `NC/C(=C/F)COc1ccc(-c2ncccn2)cc1` [Compound 38, (Z)-3-fluoro-2-((4-(pyrimidin-2-yl)phenoxy)methyl)prop-2-en-1-amine hydrochloride], for which the IC50 in experiment [1], in experiment [2], in experiment [3] and in experiment [4] was less than 3 µM each time.

Take `NC/C(=C\F)COc1ccc(-c2ncccn2)cc1` [Compound 37, (E)-3-fluoro-2-((4-(pyrimidin-2-yl)phenoxy)methyl)prop-2-en-1-amine hydrochloride]: the IC50 in experiment [1] was less than 3 µM; in experiment [2], less than 3 µM; in experiment [3], 3 to 10 µM; in experiment [4], less than 3 µM.

For the compound `NC/C(=C/F)COc1ccc(-c2ccccc2)cc1` [Compound 34, (Z)-2-(([1,1′-biphenyl]-4-yloxy)methyl)-3-fluoroprop-2-en-1-amine hydrochloride], the IC50 in experiment [1], in experiment [2], in experiment [3] and in experiment [4] was less than 3 µM each time.

For the compound `CO[C@H]1CCN(c2ncc(OC/C(=C/F)CN)cn2)C1` [Compound 81], the IC50 in experiment [1] was less than 3 µM; in experiment [2], more than 10 µM; in experiment [3], more than 10 µM; in experiment [4] it was less than 3 µM.

As to `NC/C(=C\F)COc1cccc2c1OCO2` [Compound 14, (E)-2-((benzo[d][1,3]dioxol-4-yloxy)methyl)-3-fluoroprop-2-en-1-amine hydrochloride], the IC50 is 3 to 10 µM in experiment [1], less than 3 µM in experiment [2], less than 3 µM in experiment [3] and less than 3 µM in experiment [4].

One may read the IC50 as the midpoint of a concentration-inhibition curve.

Source of the values: US20210238192A1, “VASCULAR ADHESION PROTEIN-1 (VAP-1) MODULATORS AND THERAPEUTIC USES THEREOF” (Blade Therapeutics, Inc., priority 2018, published 2021).
